Assay results taken from patent publication US12077503B2, “Substituted cyclic amides and their use as herbicides” (FMC CORPORATION, priority 2015, dated 2024).
Read-outs that look alike come from different tables or passages of the source.

What was measured:
Assay type in all cases: in vivo
[1] = test system: ragweed (common ragweed, Ambrosia elatior); test: Test A preemergence; conditions: Ambrosia artemisiifolia, pre-emergence, 240 h, preemergence, 0 to 100 scale where 0 is no effect and 100 is complete control, read-out: Ragweed plant response rating; for pest or weed control at 125 g/ha: 125 g ai/ha, approx. 10 d; for pest or weed control at 500 g/ha: 500 g ai/ha
Summary of the method: (§1)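 Visual injury, scored on a 0–100 scale relative to untreated controls, was recorded about 10 d after application. Treatments were a preemergence soil spray over planted seeds or a postemergence spray on plants at the one- to two-leaf stage, 2 to 10 cm tall, all in loam soil–sand blend in the greenhouse.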

[2] = test system: barnyardgrass (Echinochloa crus-galli); test: Test A preemergence; conditions: Echinochloa crus-galli, pre-emergence, 240 h, preemergence, read-out: Barnyardgrass plant response rating; for pest or weed control at 125 g/ha: 125 g ai/ha, approx. 10 d; for pest or weed control at 500 g/ha: 500 g ai/ha
Summary of the method: as §1

[3] = test system: ryegrass, Italian (Italian ryegrass, Lolium multiflorum); test: Test A preemergence; conditions: Lolium multiflorum, pre-emergence, 240 h, preemergence, 0 to 100 scale where 0 is no effect and 100 is complete control, read-out: Ryegrass, Italian plant response rating; for pest or weed control at 125 g/ha: 125 g ai/ha, approx. 10 d; for pest or weed control at 500 g/ha: 500 g ai/ha
Summary of the method: as §1

[4] = test system: Kochia (Kochia scoparia); test: Test A preemergence; conditions: Bassia scoparia, pre-emergence, 240 h, preemergence, 0 to 100 scale where 0 is no effect and 100 is complete control, read-out: Kochia plant response rating; for pest or weed control at 125 g/ha: 125 g ai/ha, approx. 10 d; for pest or weed control at 500 g/ha: 500 g ai/ha
Summary of the method: as §1

[5] = test system: giant foxtail (Setaria faberii); test: Test A preemergence; conditions: Setaria faberi, pre-emergence, 240 h, preemergence, 0 to 100 scale where 0 is no effect and 100 is complete control, read-out: Foxtail, Giant plant response rating; for pest or weed control at 125 g/ha: 125 g ai/ha, approx. 10 d; for pest or weed control at 500 g/ha: 500 g ai/ha
Summary of the method: as §1

[6] = test system: pigweed (Amaranthus retroflexus); test: Test A preemergence; conditions: Amaranthus retroflexus, pre-emergence, 240 h, preemergence, 0 to 100 scale where 0 is no effect and 100 is complete control, read-out: Pigweed plant response rating; for pest or weed control at 125 g/ha: 125 g ai/ha, approx. 10 d; for pest or weed control at 500 g/ha: 500 g ai/ha
[7] = test system: barnyardgrass (Echinochloa crus-galli); test: Test B flooded paddy test; conditions: Echinochloa crus-galli, 250 g ai/ha, Flood; 0 to 100 scale where 0 is no effect and 100 is complete control; read-out: Barnyardgrass plant response rating
Summary of the method: (§2)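 Rating scale 0–100 (visual, vs untreated controls) after a 13–15 d greenhouse period; application to the flood layer, 3 cm above soil and maintained; plants at 2-leaf stage when treated.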

[8] = test system: rice (Oryra sativa); test: Test B flooded paddy test; conditions: Oryza sativa, 250 g ai/ha, Flood; 0 to 100 scale where 0 is no effect and 100 is complete control; read-out: Rice plant response rating
Summary of the method: as §2

[9] = test system: ducksalad (Heteranthera limosa); test: Test B flooded paddy test; conditions: Heteranthera limosa, 250 g ai/ha, Flood; 0 to 100 scale where 0 is no effect and 100 is complete control; read-out: Ducksalad plant response rating
Summary of the method: as §2

[10] = test system: sedge, umbrella (small-flower umbrella sedge, Cyperus difformis); test: Test B flooded paddy test; conditions: Cyperus difformis, 250 g ai/ha, Flood; 0 to 100 scale where 0 is no effect and 100 is complete control; read-out: Sedge, Umbrella plant response rating
Summary of the method: as §2

[11] = test system: ragweed (common ragweed, Ambrosia elatior); test: Test A postemergence; conditions: Ambrosia artemisiifolia, post-emergence, 240 h, postemergence, read-out: Ragweed plant response rating; for pest or weed control at 125 g/ha: 125 g ai/ha, visual injury on 0 to 100 scale (0 no effect, 100 complete control), approx. 10 d; for pest or weed control at 500 g/ha: 500 g ai/ha, 0 to 100 scale, 0 is no effect, 100 is complete control
Summary of the method: as §1

[12] = test system: ryegrass, Italian (Italian ryegrass, Lolium multiflorum); test: Test A postemergence; conditions: Lolium multiflorum, post-emergence, 240 h, postemergence, read-out: Ryegrass, Italian plant response rating; for pest or weed control at 125 g/ha: 125 g ai/ha, visual injury on 0 to 100 scale (0 no effect, 100 complete control), approx. 10 d; for pest or weed control at 500 g/ha: 500 g ai/ha, 0 to 100 scale, 0 is no effect, 100 is complete control
Summary of the method: as §1

[13] = test system: giant foxtail (Setaria faberii); test: Test A postemergence; conditions: Setaria faberi, post-emergence, 240 h, postemergence, read-out: Foxtail, Giant plant response rating; for pest or weed control at 125 g/ha: 125 g ai/ha, visual injury on 0 to 100 scale (0 no effect, 100 complete control), approx. 10 d; for pest or weed control at 500 g/ha: 500 g ai/ha, 0 to 100 scale, 0 is no effect, 100 is complete control
Summary of the method: as §1

[14] = test system: wheat (Triticum aestivum); test: Test A postemergence; conditions: Triticum aestivum, post-emergence, 240 h, postemergence, read-out: Wheat plant response rating; for plant injury at 125 g/ha: 125 g ai/ha, visual injury on 0 to 100 scale (0 no effect, 100 complete control), approx. 10 d; for plant injury at 500 g/ha: 500 g ai/ha, 0 to 100 scale, 0 is no effect, 100 is complete control
Summary of the method: as §1

[15] = 0 to 100 scale where 0 is no effect and 100 is complete control
[16] = visual injury rating about 10 d after treatment, 0 to 100 scale (0 no effect, 100 complete control)

CN1C[C@H](c2cscn2)[C@@H](C(=O)Nc2ccccc2F)C1=O [Compound 1112]
pest or weed control at 125 g/ha [1]: 0%
pest or weed control at 500 g/ha [1]: 0%
pest or weed control at 125 g/ha [2, 15]: 0%
pest or weed control at 500 g/ha [2, 16]: 0%
pest or weed control at 125 g/ha [3]: 0%
pest or weed control at 500 g/ha [3]: 0%
pest or weed control at 125 g/ha [4]: 0%
pest or weed control at 500 g/ha [4]: 0%
pest or weed control at 125 g/ha [5]: 0%
pest or weed control at 500 g/ha [5]: 0%
pest or weed control at 125 g/ha [6]: 0%
pest or weed control at 500 g/ha [6]: 0%
pest or weed control at 250 g/ha [7]: 0%
pest or weed control at 250 g/ha [8]: 15%
pest or weed control at 250 g/ha [9]: 0%
pest or weed control at 250 g/ha [10]: 40%
pest or weed control at 125 g/ha [11]: 0%
pest or weed control at 500 g/ha [11]: 0%
pest or weed control at 125 g/ha [12]: 0%
pest or weed control at 500 g/ha [12]: 0%
pest or weed control at 125 g/ha [13]: 0%
pest or weed control at 500 g/ha [13]: 0%
plant injury at 125 g/ha [14]: 0%
plant injury at 500 g/ha [14]: 0%

CN1C[C@H](c2cc(C(F)F)cs2)[C@@H](C(=O)Nc2ccccc2F)C1=O [Compound 1120]
pest or weed control at 125 g/ha [1]: 40%
pest or weed control at 500 g/ha [1]: 50%
pest or weed control at 125 g/ha [2, 15]: 90%
pest or weed control at 500 g/ha [2, 16]: 100%
pest or weed control at 125 g/ha [3]: 20%
pest or weed control at 500 g/ha [3]: 40%
pest or weed control at 125 g/ha [4]: 40%
pest or weed control at 500 g/ha [4]: 70%
pest or weed control at 125 g/ha [5]: 90%
pest or weed control at 500 g/ha [5]: 100%
pest or weed control at 125 g/ha [6]: 0%
pest or weed control at 500 g/ha [6]: 50%
pest or weed control at 250 g/ha [7]: 65%
pest or weed control at 250 g/ha [8]: 20%
pest or weed control at 250 g/ha [9]: 100%
pest or weed control at 250 g/ha [10]: 0%
pest or weed control at 125 g/ha [11]: 0%
pest or weed control at 500 g/ha [11]: 50%
pest or weed control at 125 g/ha [12]: 20%
pest or weed control at 500 g/ha [12]: 40%
pest or weed control at 125 g/ha [13]: 90%
pest or weed control at 500 g/ha [13]: 90%
plant injury at 125 g/ha [14]: 20%
plant injury at 500 g/ha [14]: 50%

CSc1ccccc1NC(=O)[C@H]1C(=O)NC[C@@H]1c1cc(F)c(F)c(F)c1 [Compound 1124]
pest or weed control at 125 g/ha [1]: 0%
pest or weed control at 500 g/ha [1]: 60%
pest or weed control at 125 g/ha [2, 15]: 60%
pest or weed control at 500 g/ha [2, 15]: 90%
pest or weed control at 125 g/ha [3]: 0%
pest or weed control at 500 g/ha [3]: 30%
pest or weed control at 125 g/ha [4]: 70%
pest or weed control at 500 g/ha [4]: 90%
pest or weed control at 125 g/ha [5]: 90%
pest or weed control at 500 g/ha [5]: 90%
pest or weed control at 125 g/ha [6]: 50%
pest or weed control at 500 g/ha [6]: 70%
pest or weed control at 250 g/ha [7]: 0%
pest or weed control at 250 g/ha [8]: 0%
pest or weed control at 250 g/ha [9]: 95%
pest or weed control at 250 g/ha [10]: 0%
pest or weed control at 125 g/ha [11]: 0%
pest or weed control at 500 g/ha [11]: 50%
pest or weed control at 125 g/ha [12]: 0%
pest or weed control at 500 g/ha [12]: 0%
pest or weed control at 125 g/ha [13]: 60%
pest or weed control at 500 g/ha [13]: 90%
plant injury at 125 g/ha [14]: 0%
plant injury at 500 g/ha [14]: 0%

Cc1c(F)cccc1NC(=O)[C@H]1C(=O)NC[C@@H]1c1cc(F)c(F)c(F)c1 [Compound 1125]
pest or weed control at 125 g/ha [1]: 0%
pest or weed control at 125 g/ha [2, 15]: 90%
pest or weed control at 500 g/ha [2, 15]: 90%
pest or weed control at 125 g/ha [3]: 0%
pest or weed control at 500 g/ha [3]: 60%
pest or weed control at 125 g/ha [4]: 50%
pest or weed control at 500 g/ha [4]: 80%
pest or weed control at 125 g/ha [5]: 90%
pest or weed control at 500 g/ha [5]: 100%
pest or weed control at 125 g/ha [6]: 0%
pest or weed control at 500 g/ha [6]: 40%
pest or weed control at 250 g/ha [7]: 70%
pest or weed control at 250 g/ha [8]: 0%
pest or weed control at 250 g/ha [9]: 100%
pest or weed control at 250 g/ha [10]: 0%
pest or weed control at 125 g/ha [11]: 0%
pest or weed control at 500 g/ha [11]: 0%
pest or weed control at 125 g/ha [12]: 0%
pest or weed control at 500 g/ha [12]: 60%
pest or weed control at 125 g/ha [13]: 90%
pest or weed control at 500 g/ha [13]: 90%
plant injury at 125 g/ha [14]: 30%
plant injury at 500 g/ha [14]: 40%

CN1C[C@H](c2ccc3c(c2)OCO3)[C@@H](C(=O)Nc2cccc(F)c2F)C1=O [Compound 1126]
pest or weed control at 125 g/ha [1]: 60%
pest or weed control at 500 g/ha [1]: 50%
pest or weed control at 125 g/ha [2, 15]: 90%
pest or weed control at 500 g/ha [2, 15]: 90%
pest or weed control at 125 g/ha [3]: 0%
pest or weed control at 500 g/ha [3]: 70%
pest or weed control at 125 g/ha [4]: 70%
pest or weed control at 500 g/ha [4]: 80%
pest or weed control at 125 g/ha [5]: 90%
pest or weed control at 500 g/ha [5]: 90%
pest or weed control at 125 g/ha [6]: 30%
pest or weed control at 500 g/ha [6]: 60%
pest or weed control at 250 g/ha [7]: 75%
pest or weed control at 250 g/ha [8]: 0%
pest or weed control at 250 g/ha [9]: 100%
pest or weed control at 250 g/ha [10]: 0%
pest or weed control at 125 g/ha [11]: 40%
pest or weed control at 500 g/ha [11]: 40%
pest or weed control at 125 g/ha [12]: 30%
pest or weed control at 500 g/ha [12]: 50%
pest or weed control at 125 g/ha [13]: 80%
pest or weed control at 500 g/ha [13]: 90%
plant injury at 125 g/ha [14]: 50%
plant injury at 500 g/ha [14]: 70%
